Test results: patent US5656660A, “Compositions and methods for treating mast-cell mediated conditions” (Arris Pharmaceutical Corporation, priority 1995, dated 1997)
pKi: −log10 of the molar value.

What was measured:
tryptase = assay: In vitro tryptase inhibition assay; type: biochemical, human; conditions: tosyl-Gly-Pro-Lys-p-nitroanilide 0.5 mM; 1 h preincubation at room temperature; pH 8.2
Protocol: The compounds to be assayed (approximately 1 mg) were dissolved in 200 μL dimethylsulfoxide (DMSO) and diluted 1:10 into buffer containing 50 millimolar (mM) Tris-HCl (pH 8.2), 100 mM sodium chloride, and 0.05% polyoxyethylenesorbitan monolaurate (Tween-20°, available from Sigma, St. Louis, Mo.). Seven additional threefold dilutions were made from the initial dilution into the same buffer supplemented with 10% DMSO. Aliquots (50 microliters, μL) from each of the eight dilutions in the series were transferred to individual wells in a 96-well U-bottom microtiter plate. […] The tryptase solution was prepared by placing 60 μg/mL of tryptase into solution with 10 mM MES (2-[N-Morpholino]ethane sulfonic acid) containing 2 mM CaCl2, 20% glycerol and 50 μg/mL heparin. The enzyme reaction was initiated with the addition of the synthetic tripeptide substrate, tosyl-Gly-Pro-Lys-p-nitroanilide (available from Sigma, 25 μL; 0.5 mM final concentration). […] Initial velocity measurements calculated from the progress curves by a kinetic analysis program (BatchKi; Petr Kuzmic, University of Wisconsin, Madison, Wis.) were used to determine apparent inhibition constants for each inhibitor.

antigen-challenged sheep [1] = assay: Allergic sheep model of asthma, aerosol: Specific Lung Resistance (SRL) after antigen challenge; type: in vivo; conditions: aerosol 0.5 h before, 4 h after and 24 h after challenge, n=6; for early response to antigen challenge (SRL): peak immediately post-challenge; for late response to antigen challenge (SRL): peak within 6-8 h
Protocol: The initial asthmatic response can be evaluated in guinea pigs, and dogs, and particularly, with a basenji-greyhound cross strain which develops nonspecific airway hyperresponsiveness to numerous nonallergenic substances, such as methacholine and citric acid. […] In dual responding animals, the initial asthmatic response (IAR) is followed by a late asthmatic response (LAR) at 6-8 hours post-exposure.
The allergic sheep model (see below) was used to evaluate the potential antiasthmatic effects of the compounds of the present invention.
(§1) The allergic sheep model of asthma was employed for the in vivo evaluation of the compounds of the invention as antiasthmatics. These methods have been published previously (see Abraham et al. (1983) Am. Rev. Respir. Dis. 128:839-844; Allegra et al. (1983) J. Appl. Physiol. 55:726-730; Russi et al. (1985) J. Appl. Physiol. 59:1416-1422; Soler et al. ((1989) J. Appl. Physiol. 67:406-413. Each sheep serves as its own control. Body weights for these animals ranged from 20-50 kilograms.
(§2) In these studies, […] of Compound 2 of the invention was dissolved in buffered saline and the total solution delivered as an aerosol 0.5 hours before, 4 hours after, and 24 hours after antigen challenge (total dose=27; n=6). […] The peak early response was taken as the average of the maximum values occurring immediately post-challenge. Peak late responses were calculated by averaging the maximum response values obtained for each animal within the 6-8 hour time period. This approach is conservative and eliminates the possible reduction in the late response due simply to averaging.

antigen-challenged sheep [2] = assay: Allergic sheep model of asthma: airway hyperresponsiveness (PC400, carbachol); type: in vivo; conditions: aerosol; for PC400, concentration of carbachol that causes a 400% increase in SRL / onset of hyperresponsiveness: 24 h after antigen challenge
Text: as §1, §2
Twenty-four hours after antigen challenge in both the control and drug trial, the sheep developed airway hyperresponsiveness. Airway hyperresponsiveness is expressed as PC400, the concentration of carbachol that causes a 400% increase in SRL; therefore, a decrease in PC400 indicates hyperresponsiveness. […] The number of breath units fell to 10±4 for those animals in the control group.

antigen-challenged sheep [3] = assay: Allergic sheep model of asthma, oral (intergastric tube): Specific Lung Resistance (SRL); type: in vivo
Text: as §1
Three doses of Compound 2 (40 mg in 60 mL water) were administered to sheep through an intergastric tube 1 hr before challenge, 4 hours post-challenge, and 24 hours post-challenge.

pKi (tryptase)	Compound	other results
7.70	N=C(N)Nc1ccc(CNC(=O)CNC(=O)OCc2ccc(COC(=O)NCC(=O)NCc3ccc(NC(=N)N)cc3)cc2)cc1 [Example 2, N,N'-(4-Guanidylbenzylaminecarbonylmethylene)-1,4-benzenedimethanol dicarbamate]	early response to antigen challenge (SRL) (antigen-challenged sheep [1]): statistically significant reduction in the early response; late response to antigen challenge (SRL) (antigen-challenged sheep [1]): attenuated the late response; PC400, concentration of carbachol that causes a 400% increase in SRL (antigen-challenged sheep [2]): 24±6 breath units; onset of hyperresponsiveness (antigen-challenged sheep [2]): block the onset of hyperresponsiveness; improvement in airway function in antigen challenged sheep (antigen-challenged sheep [2]): statistically significant improvement in airway function; early phase SRL (antigen-challenged sheep [3]; 40 mg in 60 mL water by intergastric tube 1 h before, 4 h and 24 h post-challenge, untreated about 350): about 270; late phase SRL (antigen-challenged sheep [3]; 40 mg in 60 mL water by intergastric tube 1 h before, 4 h and 24 h post-challenge, untreated over 150): about 70; anti-asthmatic properties when delivered orally (antigen-challenged sheep [3]; 40 mg in 60 mL water, intergastric tube, three doses): significant anti-asthmatic properties
8.46	NCc1ccc(CNC(=O)CCC(=O)NCc2ccc(CNC(=O)CCC(=O)NCc3ccc(CN)cc3)cc2)cc1 [Example 8, N,N'-bis(N-(4-aminomethylbenzyl)-succinamido)-p-xylylenediamide]	early response to antigen challenge (SRL) (antigen-challenged sheep [1]): statistically significant early and late increases in SRL; late response to antigen challenge (SRL) (antigen-challenged sheep [1]): statistically significant early and late increases in SRL; PC400, concentration of carbachol that causes a 400% increase in SRL (antigen-challenged sheep [2]): 15±10 breath units; onset of hyperresponsiveness (antigen-challenged sheep [2]): block the onset of hyperresponsiveness; improvement in airway function in antigen challenged sheep (antigen-challenged sheep [2]): statistically significant improvement in airway function
5.09	N=C(N)NCc1ccc(NC(=O)CNC(=O)OCc2ccc(COC(=O)NCC(=O)Nc3ccc(CNC(=N)N)cc3)cc2)cc1 [Example 43, Bis((4-guanidomethylanilido)glycine)-1,4-benzenedimethanol dicarbamate]	
7.26	NCc1cccc(CNC(=O)CNC(=O)OCc2ccc(COC(=O)NCC(=O)NCc3cccc(CN)c3)cc2)c1 [Example 44, Bis((3-aminomethylbenzylamido)glycine)-1,4-benzenedimethanol dicarbamate]	
8.00	NC[C@H]1CC[C@H](CNC(=O)CNC(=O)OCc2ccc(COC(=O)NCC(=O)NC[C@H]3CC[C@H](CN)CC3)cc2)CC1 [Example 45, Bis(trans-1,4-cyclohexyldimethylamine-glycine)-1,4-benzenedimethanol dicarbamate]	
8.00	N=C(N)Nc1ccc(CNC(=O)CNC(=O)NCc2ccc(CNC(=O)NCC(=O)NCc3ccc(NC(=N)N)cc3)cc2)cc1 [Example 46, 4-(Guanidinobenzylamido)glycine-1,4-xylylene diurea]	
7.21	NCc1ccc(CNC(=O)NCC(=O)NCc2ccc(CNC(=O)CNC(=O)NCc3ccc(CN)cc3)cc2)cc1 [Example 47, Bis(N-(4-aminomethylbenzyl)glycylurea)-p-xylylene diamide]	
6.15	N=C(N)Nc1ccc(CNC(=O)NCC(=O)NCc2ccc(CNC(=O)CNC(=O)NCc3ccc(NC(=N)N)cc3)cc2)cc1 [Example 48]	
6.44	NCC1CCC(C(=O)NCCCC(=O)NCc2ccc(CNC(=O)CCCNC(=O)C3CCC(CN)CC3)cc2)CC1 (stereo not shown) [Example 49]	
7.37	NCc1ccc(CNC(=O)NCC(=O)NCCc2ccc(NC(=O)CNC(=O)NCc3ccc(CN)cc3)cc2)cc1 [Example 50, Bis(N-(4-aminomethylbenzyl)glycylurea)-1,4-phenethylenediamide]	
6.89	CN(Cc1ccc(CN(C)C(=O)CNC(=O)NC[C@H]2CC[C@H](CN)CC2)cc1)C(=O)CNC(=O)NC[C@H]1CC[C@H](CN)CC1 [Example 51, N,N'-Bis(methyl)-bis(glycine-trans-1,4-cyclohexylbis(methylamine)urea)-p-xylylene diamide]	
7.10	CN(Cc1ccc(CN(C)C(=O)CNC(=O)NCc2ccc(CN)cc2)cc1)C(=O)CNC(=O)NCc1ccc(CN)cc1 [Example 52, N,N'-Bis(methyl)-bis(glycine-p-xylylenediamine urea)-p-xylylene diamide]	
5.92	CN(Cc1ccc(CN(C)C(=O)c2ccc(CNC(=O)NC[C@H]3CC[C@H](CN)CC3)cc2)cc1)C(=O)c1ccc(CNC(=O)NC[C@H]2CC[C@H](CN)CC2)cc1 [Example 53]	
6.22	CN(Cc1ccc(CN(C)C(=O)CN(C)C(=O)NC[C@H]2CC[C@H](CN)CC2)cc1)C(=O)CN(C)C(=O)NC[C@H]1CC[C@H](CN)CC1 [Example 54, N,N'-Bis(methyl)-bis(sarcosine-trans-1,4-cyclohexylbis(methylamine)urea)-p-xylylene diamide]	
6.21	Bis((R,S)-2-(2-(4-guanidinobenzylamino)-2,3-dehydro-6-piperidone)-1,4-benzenedimethanol dicarbmate [Example 41]	
